Entries after “also recorded” stand apart in the source; their conditions may differ.
How the values were obtained:
[1] = tested on: polyoma virus transformed BHK21/c13 cells, clone S100T1; assay: Clonal test: clonal growth of S100T1 cells in soft agar (Exp 2, 4, 6, 15, 16); type: cell-based, hamster
[2] = tested on: polyoma virus transformed BHK21/c13 cells, line S100T1; assay: Collocation inhibition test: clonal growth in sparsely and densely seeded areas of a cell density gradient of S100T1 cells in soft agar (Exp 13, 17, 19-26); conditions: for Significance: Exp 17 day 14;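 for Clonal growth, H high density area of cell gradient, High: grades rise with clonal growth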;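 for Clonal growth, H high density area of cell gradient, Low: grades rise with clonal growth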;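 for Clonal growth, H high density area of cell gradient, Medium: grades rise with clonal growth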;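 for Clonal growth, L low density area of cell gradient, High: grades rise with clonal growth and minus or plus-minus means none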;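 for Clonal growth, L low density area of cell gradient, Low: grades rise with clonal growth and minus or plus-minus means none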;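 for Clonal growth, L low density area of cell gradient, Medium: grades rise with clonal growth and minus or plus-minus means none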;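 for all read-outs here: soft agar cultures in 24-well plates with a cell density gradient in the top layer, compounds applied from DMSO stocks, clonal growth scored in sparse versus dense areas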
[3] = Exp 15, 32000 S100T1 cells/well
[4] = preliminary results, Exp 13-18, 21-26, high concentration
[5] = preliminary results, Exp 13-18, 21-26, low concentration
[6] = preliminary results, Exp 13-18, 21-26, medium concentration

What does the source list for `COc1cc([C@@H]2c3cc4c(cc3[C@H](O)[C@H]3COC(=O)[C@H]23)OCO4)cc(OC)c1OC` [Podophyllotoxin]?
Effect on clonal growth at 0.03 μM [1, 3]: no significant inhibition; Effect on clonal growth at 0.3 μM [1, 3]: inhibited significantly; Concentration inhibiting clones significantly ([1]; Exp 16): More than 0.065 μM Podophyllotoxin inhibited clones; Colony inhibiting activity for dosage within a range that might be therapeutic ([1]; Exp 16, about 40000 S100T1 cells/well): the same activity possibly existed; Significance ([1]; Exp 16 day 14, Podophyllotoxin No 5 (lot 12K1562, solved in DMSO 8 days beforehand, stored frozen), 0.3 μM): probable; Growth ([1]; Exp 16 day 14, Podophyllotoxin No 5 (lot 12K1562, solved in DMSO 8 days beforehand, stored frozen), 0.3 μM in wells): (+)); Growth ([1]; Exp 16 day 14, Podophyllotoxin No 5 (lot 12K1562, solved in DMSO 8 days beforehand, stored frozen), 3 μM in wells): (+)); Significance ([1]; Exp 16 day 14, Podophyllotoxin No 5 (lot 12K1562, solved in DMSO 8 days beforehand, stored frozen), 3 μM, ” = as line above): ” and probable and prob-; Significance ([1]; Exp 16 day 14, Podophyllotoxin No 6 (lot 12K1562, solved in DMSO the same day), 0.03 μM): no; Significance ([1]; Exp 16 day 14, Podophyllotoxin No 6 (lot 12K1562, solved in DMSO the same day), 0.065 μM): possible; Growth ([1]; Exp 16 day 14, Podophyllotoxin No 6 (lot 12K1562, solved in DMSO the same day), 0.065 μM in wells): (+); Significance ([1]; Exp 16 day 14, Podophyllotoxin No 7 (lot 12K1562, solved in DMSO the same day), 0.139 μM): probable; Growth ([1]; Exp 16 day 14, Podophyllotoxin No 7 (lot 12K1562, solved in DMSO the same day), 0.139 μM in wells): (+)); Growth ([1]; Exp 16 day 14, Podophyllotoxin No 7 (lot 12K1562, solved in DMSO the same day), 0.3 μM in wells): (+); Significance ([1]; Exp 16 day 14, Podophyllotoxin No 7 (lot 12K1562, solved in DMSO the same day), 0.3 μM, ” = as line above): ” and possible; Significance ([1]; Exp 16 day 21, Podophyllotoxin No 5 (lot 12K1562, solved in DMSO 8 days beforehand, stored frozen), 0.3 μM): doubtful; Growth ([1]; Exp 16 day 21, Podophyllotoxin No 5 (lot 12K1562, solved in DMSO 8 days beforehand, stored frozen), 0.3 μM in wells): (+; Significance ([1]; Exp 16 day 21, Podophyllotoxin No 5 (lot 12K1562, solved in DMSO 8 days beforehand, stored frozen), 3 μM): probable; Growth ([1]; Exp 16 day 21, Podophyllotoxin No 5 (lot 12K1562, solved in DMSO 8 days beforehand, stored frozen), 3 μM in wells): (+)); Significance ([1]; Exp 16 day 21, Podophyllotoxin No 6 (lot 12K1562, solved in DMSO the same day), 0.03 μM): no; Growth ([1]; Exp 16 day 21, Podophyllotoxin No 6 (lot 12K1562, solved in DMSO the same day), 0.03 μM in wells): ++; Significance ([1]; Exp 16 day 21, Podophyllotoxin No 6 (lot 12K1562, solved in DMSO the same day), 0.065 μM): doubtful; Growth ([1]; Exp 16 day 21, Podophyllotoxin No 6 (lot 12K1562, solved in DMSO the same day), 0.065 μM in wells): (+; Significance ([1]; Exp 16 day 21, Podophyllotoxin No 7 (lot 12K1562, solved in DMSO the same day), 0.139 μM): doubtful; Growth ([1]; Exp 16 day 21, Podophyllotoxin No 7 (lot 12K1562, solved in DMSO the same day), 0.139 μM in wells): (+; Significance ([1]; Exp 16 day 21, Podophyllotoxin No 7 (lot 12K1562, solved in DMSO the same day), 0.3 μM): possible; Growth ([1]; Exp 16 day 21, Podophyllotoxin No 7 (lot 12K1562, solved in DMSO the same day), 0.3 μM in wells): (+); Effect on growth in high- and low-density areas ([2]; Exp 17, 144000 S100T1 cells/well): growth inhibition of both high and low-density areas; also recorded: significant inhibition of growth in crowded areas; Clonal growth, results read on the day 14 ([2]; Exp 17, a: close to densely seeded cell areas, High: Colchicine 1, Podophyllotoxin 3, Etoposide 200, 4-OH—OPB 6.7 μM in wells, DMSO 29.2 μl): (+); Clonal growth, results read on the day 14 ([2]; Exp 17, a: close to densely seeded cell areas, Low: Colchicine 0.1, Podophyllotoxin 0.3, Etoposide 20, 4-OH—OPB 0.67 μM in wells, DMSO 1.16 μl): (+; Clonal growth, results read on the day 14 ([2]; Exp 17, a: close to densely seeded cell areas, Medium: Colchicine 0.3, Podophyllotoxin 0.9, Etoposide 60, 4-OH—OPB 2 μM in wells, DMSO 6.8 μl): (+; Clonal growth, results read on the day 14 ([2]; Exp 17, b: sparsely seeded areas in the same agar culture, High: Colchicine 1, Podophyllotoxin 3, Etoposide 200, 4-OH—OPB 6.7 μM in wells, DMSO 29.2 μl): (+); Clonal growth, results read on the day 14 ([2]; Exp 17, b: sparsely seeded areas in the same agar culture, Low: Colchicine 0.1, Podophyllotoxin 0.3, Etoposide 20, 4-OH—OPB 0.67 μM in wells, DMSO 1.16 μl): +; Clonal growth, results read on the day 14 ([2]; Exp 17, b: sparsely seeded areas in the same agar culture, Medium: Colchicine 0.3, Podophyllotoxin 0.9, Etoposide 60, 4-OH—OPB 2 μM in wells, DMSO 6.8 μl): +; Clones in sparsely seeded locations of the agar ([2]; Exp 17, compared with 4-OH-OPB): allow the growth of a few small clones in sparsely seeded locations of the agar; also recorded: to allow the growth of a few small clones in sparsely; Significance ([2]; a: close to densely seeded cell areas, High: Colchicine 1, Podophyllotoxin 3, Etoposide 200, 4-OH—OPB 6.7 μM in wells, DMSO 29.2 μl): Possible; Significance ([2]; a: close to densely seeded cell areas, Low: Colchicine 0.1, Podophyllotoxin 0.3, Etoposide 20, 4-OH—OPB 0.67 μM in wells, DMSO 1.16 μl): Doubtful; Significance ([2]; a: close to densely seeded cell areas, Medium: Colchicine 0.3, Podophyllotoxin 0.9, Etoposide 60, 4-OH—OPB 2 μM in wells, DMSO 6.8 μl): Doubtful; Significance ([2]; b: sparsely seeded areas, High: Colchicine 1, Podophyllotoxin 3, Etoposide 200, 4-OH—OPB 6.7 μM in wells, DMSO 29.2 μl): Possible; Significance ([2]; b: sparsely seeded areas, Low: Colchicine 0.1, Podophyllotoxin 0.3, Etoposide 20, 4-OH—OPB 0.67 μM in wells, DMSO 1.16 μl): No; Significance ([2]; b: sparsely seeded areas, Medium: Colchicine 0.3, Podophyllotoxin 0.9, Etoposide 60, 4-OH—OPB 2 μM in wells, DMSO 6.8 μl): No; Control of metastatic cells leaving tumour ([2]; ability of cells to leave a tumour, grow and infiltrate locally or grow in sparsely seeded areas, concluded from Exp 17): probably not; Clonal growth, H high density area of cell gradient, High [2, 4]: (+); Clonal growth, L low density area of cell gradient, High [2, 4]: (+); Clonal growth, H high density area of cell gradient, Low [2, 5]: (+; Clonal growth, L low density area of cell gradient, Low [2, 5]: +; Clonal growth, H high density area of cell gradient, Medium [2, 6]: (+; Clonal growth, L low density area of cell gradient, Medium [2, 6]: +; Effect on cell cloning in soft agar ([2]; preliminary results, in words): cytotoxic; Control of settlement of metastatic cells ([2]; single cells or very few cells spread to distant sites, concluded from Exp 17): partly; Toxicity for body or dense cell populations ([2]; supposed main advantages or disadvantages if used in cancer treatment, concluded from Exp 17): yes; Tolerating long duration of treatment ([2]; supposed, if used in cancer treatment): no
